For data set [1] the following is noted: cited from earlier work.
The conditions of data set [2]: cited from earlier work. This is another data set of the same source.
The subject of data set [3] is topoisomerase I-cleaved DNA complex. Conditions: cited from earlier work.
Data set [4] is described as follows: Predicted outcome of administering lactone stable CPT to patients. Type of data set: in vivo, human. An excerpt: The novel features of the present invention include the following: (1) pharmaceutically acceptable formulations which allow the direct parenteral administration of lactone stable CPT to human subjects with cancer, (2) pharmaceutically acceptable formulations which allow the direct oral administration of lactone stable CPT to human subjects with cancer, and (3) dosages and schedules for the administration of lactone stable CPT to patients with cancer by parenteral and oral routes of administration. […] The inventors predict that by administering the carboxylate species of CPT a higher incidence of renal toxicity is observed than would be observed if the lactone species of CPT were administered.
Inventors claim that reason previous use of sodium CPT caused hemorrhagic cystitis relates to the enhanced renal excretion of the carboxylate form of CPT which when exposed to the lower pH (~pH 5) of the distal convoluted tubule in the kidney, the carboxylate form of CPT is converted to the lactone form of CPT. […] Elimination of CPT by the renal route is enhanced by administration of the carboxylate form and is reduced by administration of the lactone form.

For data set [5] the following is noted: cited from earlier work. The source holds these as a separate data set.
A short description of data set [6]: Oral absorption / bioavailability. It is filed as in vivo. Conditions: with taurocholic acid or salt in solution dosage composition. An excerpt: Taurocholic acid, a bile acid, may enhance in the intestinal absorption of the drug in certain patients. […] It is believed that this is due to the formation of a micellar solution of CPT on dilution thereof with the gastric contents.
Analogous to that of etoposide, it is believed that ingestion of the present dosage form of CPT and resulting dilution thereof by the stomach contents, results in the formation of a micellar solution of CPT in the stomach which is readily absorbed by the gastrointestinal tract.

For data set [7] the following is noted: human, in vivo; cited from earlier work.
Data set [8] has as its system Topoisomerase I purified from human colon carcinoma cells or calf thymus. Particulars: cited from earlier work.
For data set [9] the following is noted: pH below 7.0; cited from earlier work.
The test system of a further data set is LD1210 leukemia. Particulars: 10-100 mg/kg intraperitoneally; cited from earlier work.
A further data set concerns L1210 cells. Particulars: cited from earlier work.
In the next data set the test system is DNA. Particulars: in vitro cells; cited from earlier work.
The conditions of data set [10]: carboxylate form; cited from earlier work.
For data set [11] the following is noted: cited from earlier work. The source holds these as a separate data set.
The conditions of data set [12]: 24 hours after, once daily ×5, 6.5-20 mg/m^2 /day; cited from earlier work.
The subject of a further data set is malignant melanoma. Conditions: cited from earlier work.
[13] abbreviates: 5-day course (27 patients), 4 wks.
Setting [14] is: 5-day course (27 patients), 8 wks.
Where [15] appears, read: 5-day course (27 patients), 12 wks.
The mark [16] stands for this setting: 5-day course, 15 mg/m^2 × 5, 9 treated.
[17] abbreviates: 5-day course, 17 mg/m^2 × 5, 5 treated.
The mark [18] stands for this setting: 5-day course, 20 mg/m^2 × 5, 10 treated.
The mark [19] stands for this setting: single-dose (34 patients), 3 wks.
The mark [20] stands for this setting: single-dose (34 patients), 6 wks.
The mark [21] stands for this setting: single-dose (34 patients), 9 wks.
The mark [22] stands for this setting: single-dose (34 patients), 12 wks.
The mark [23] stands for this setting: single-dose, 110 mg/m^2, 2 treated.
Setting [24] is: single-dose, 120 mg/m^2, 7 treated.
Setting [25] is: single-dose, 180 mg/m^2, 9 treated.

“Also recorded” adds a separate entry of the source. Where two headings read alike, the source gives them in different places. Bounds are passed on as bounds.

Regarding `CC[C@@]1(O)C(=O)OCc2c1cc1n(c2=O)Cc2cc3cc4c(cc3nc2-1)OCO4` [10,11 methylene dioxycamptothecin], the solubility in water result in data set [1] was “relatively insoluble in water”.

With `CC[C@@]1(O)C(=O)OCc2c1cc1n(c2=O)Cc2cc3ccccc3nc2-1` [CPT, camptothecin], in data set [2] (human, in vivo), the “cystitis as nonhematologic toxic effect” value was “Cystitis was another toxic effect occurring frequently” and the excretion result was “excreted unchanged by the kidneys”. Moreover, the “stabilization of the cleavable complex” value in [3] is “only the closed lactone form of the drug helps stabilize the cleavable complex”. For the same molecule, the “renal elimination of CPT” value in data set [4] (oral or parenteral, lactone form, expected) is given as “minimal”. In addition, the “frequency of hemorrhagic cystitis relative to sodium CPT” value in data set [4] (predicted) is “significantly reduced”. For the same molecule, in data set [5] (gastrointestinal cancer), the “investigators' conclusion on toxicity and clinical value” is “a drug of protean and unpredictable toxicity that has no clinical value”. Besides, the absorption following ingestion entry in [6] is recorded as “improved absorption of the drug following ingestion”. The “toxicity in clinical trials” value in data set [7] is “unpredictable myelosuppression and hemorrhagic cystitis”. Besides, the “inhibition of topoisomerase I” value in data set [8] is recorded as “inhibited”. The form predominating result in data set [9] is reported as “closed form of CPT predominates”. Moreover, in the data set on LD1210 leukemia, the “T/C (treated/control) ratios” value was “superior T/C (treated/control) ratios relative to mice treated in the same manner with 7-ethyl camptothecin (ECPT) and 10-hydroxy 7-ethyl camptothecin (HECPT); also recorded: inferior to that of CPT-11 administration under the same conditions”. Further, the unexplained protein-free breaks result in the data set with L1210 cells is on record as “an increase in unexplained protein-free breaks can be detected”. Also, in the data set with DNA, the “nature of DNA strand breaks” value was “Virtually all of the DNA strand breaks observed in vitro cells treated with CPT are protein linked”.

With `CC[C@@](O)(C(=O)O)c1cc2n(c(=O)c1CO)Cc1cc3ccccc3nc1-2` [carboxylate form of CPT], the “reduction of antitumor activity” value in [10] is “at least 10 fold”.

As to “sodium salt of camptothecin [CPT sodium]”, the “Bladder toxicity, dose limiting” value in data set [2] (doses of 20 to 30 mg/m^2) is “three”. Further, the “Bladder toxicity, additional patients” value in [2] (doses of 44 and 30 mg/m^2) is given as “two”. Besides, the clinical benefit result in data set [2] (eight patients with measurable disease, 5-day courses) is listed as “No clinical benefit was observed”. Further, the “cystitis as nonhematologic toxic effect” value in data set [2] (human, in vivo) is reported as “Cystitis was the most prominent nonhematologic toxic effect”. The “major dose-limiting toxic effect” value in data set [2] (human, in vivo) is “Reversible leukopenia”. For the same molecule, the “prolonged leukopenia after daily treatment” value in data set [2] (total dose of 100 mg/m^2) is reported as “four”. Also, in data set [2] (weekly courses), the clinical responses result is reported as “two”. Further, in [11] (first 48 hours, iv), the “mean urine recovery of CPT” value is on record as 17.4%. Moreover, in data set [11] (first 48 hours, iv), the “urine recovery of CPT, range” value is reported as 3.6-38.9%. For the same molecule, in data set [11] (iv, 2880 min), the “mean urine recovery of CPT excluding the 5 patients with impaired excretion” value is recorded as 22.8%. The sterile hemorrhagic cystitis in data set [11] (moderately dehydrated patients) is listed as 3 patients. Further, the Cystitis is 48 % of 27 Patients in data set [5] (5-Day Course, P < 0.05) and 24 % of 34 Patients in data set [5] (Single Dose). Further, the “Objective results: Improved” value in data set [5] (setting [13]) is recorded as 1 patients; in data set [5] (setting [19]), 4 patients; in data set [5] (setting [20]) it was 2 patients; in [5] (setting [21]), 2 patients. The “Objective results: Stable” value in [5] (setting [13]) was 12 patients; in data set [5] (setting [14]) it was 7 patients; in data set [5] (setting [15]) it was 6 patients; in [5] (setting [19]) it was 17 patients; in [5] (setting [20]), 11 patients; in data set [5] (setting [21]), 8 patients. Also, in data set [5] (setting [22]), the “Objective results: Stable” value is recorded as 6 patients. Besides, the “Objective results: Worse” value in data set [5] (setting [13]) was 14 patients; in [5] (setting [14]), 20 patients; in data set [5] (setting [15]), 21 patients; in data set [5] (setting [19]), 13 patients; in data set [5] (setting [20]), 21 patients; in data set [5] (setting [21]), 24 patients. The “Objective results: Worse” value in data set [5] (setting [22]) was 28 patients. Also, the “Cystitis, No. of Patients” value in data set [5] (5-day course, 11 mg/m^2 × 5, 2 treated) is listed as 1 No. of Patients; in data set [5] (setting [16]) it was 4 No. of Patients; in [5] (setting [17]) it was 2 No. of Patients; in data set [5] (setting [18]), 6 No. of Patients; in [5] (single-dose, 100 mg/m^2, 6 treated), 2 No. of Patients; in [5] (setting [23]), 1 No. of Patients. The “Cystitis, No. of Patients” value in data set [5] (setting [24]) is reported as 2 No. of Patients; in data set [5] (setting [25]), 3 No. of Patients. For the same molecule, the “Diarrhea, No. of Patients” value in data set [5] (setting [16]) is on record as 1 No. of Patients; in data set [5] (setting [17]), 4 No. of Patients; in [5] (setting [18]), 4 No. of Patients; in data set [5] (5-day course, 22 mg/m^2 × 5, 1 treated), 1 No. of Patients; in [5] (setting [23]), 1 No. of Patients; in data set [5] (setting [24]), 4 No. of Patients. Also, the “Diarrhea, No. of Patients” value in [5] (setting [25]) was 2 No. of Patients. For the same molecule, the partial objective improvement result in data set [5] (after 2 months (8 or 9 weeks), both large bowel cancer) is “two”. In data set [5] (at 3 months, 61 patients), the improvement result is recorded as “none showed improvement”. Also, the 25%-50% response in data set [5] (at 3 wks only) was 3 patients. Moreover, in data set [5] (higher doses), the “persistence of severe diarrhea” value is reported as no more than 4 weeks. In addition, in data set [5] (human, in vivo), the onset of cystitis is 7 to 10 days. Moreover, the “toxicity in clinical trials” value in [7] was “unpredictable and severe myelosuppression, gastrointestinal toxicity, hemorrhagic cystitis, and alopecia”. For the same molecule, the “relation of plasma CPT levels to dose” value in [12] is “little relation to the dose given”. In addition, in the data set with malignant melanoma (90-360 mg/m^2 every 2 weeks, fifteen patients), the “50% or greater decrease in tumor diameter” value was “None”. The myelosuppression in the data set with malignant melanoma (fifteen patients) is 11 patients. In the data set on malignant melanoma (human, in vivo), the toxic effects result was “nausea and vomiting, alopecia, diarrhea, and hemorrhagic cystitis”. For the same molecule, in the data set with malignant melanoma (no clinical benefit, fifteen patients), the “less pronounced transient tumor regression” value was “three”.

These data come from patent publication US5597829A, “Lactone stable formulation of camptothecin and methods for uses thereof” (priority 1994, dated 1997).
